Data reported in patent EP4463162B1, “CONNEXIN 43 FOR USE IN TREATING BRCA1/2-MUTATED CANCER” (Fundación Profesor Novoa Santos, priority 2022, dated 2023).
Where two headings read alike, the source gives them in different places.

Tests used:
p21 = assay: Western blot against senescence marker p21; format: cell-based, human; conditions: Cx43_HCC1937, 96 h, 100 µM olaparib
Experimental: Protein extracts were mixed with loading buffer, which consisted of 10 % (v/v) β-mercaptoethanol (Sigma-Aldrich), 10 % SDS, 50 % (v/v) glycerol, 200 mM Tris-HCl pH 6.8 and 0.1 % bromophenol blue (Sigma-Aldrich). They were boiled at 95 °C for 8 min and 20-30 µg protein were loaded into 8, 10 or 15 % acrylamide/bis-acrylamide self-made gels, depending on the molecular weight of the target protein/s to investigate. Gels were run at 80 V for approximately 2 h using a Mini-PROTEAN Tetra electrophoresis system (BioRad), and then transferred to methanol-preactivated polyvinylidene fluoride (PVDF) membranes (Millipore) at 100 V and 4 °C for 1-1.5 h with a Mini Trans-Blot Electrophoretic Transfer Cell (BioRad). Afterwards, membranes with the transferred proteins were stained with ATX Ponceau S red staining solution (Sigma-Aldrich) for 10 min at room temperature, photographed in an Amersham Imager 600 (GE Healthcare) and unstained with distilled water. They were then blocked for 1 h at room temperature with 5 % skim milk (Sigma-Aldrich) diluted in TBST buffer (Tris-buffered saline TBS composed of 20 mM Tris and 150 mM NaCl, supplemented with 0.05 % (v/v) Tween-20, Sigma-Aldrich) with shaking. […] Ponceau staining and western blot images were analysed and their band intensities quantitated with Image J software. […]

[1] = test system: cleaved caspase 3, PARP-1; conditions: 50 and 100 µM olaparib

## O=C(c1cc(Cc2n[nH]c(=O)c3ccccc23)ccc1F)N1CCN(C(=O)C2CC2)CC1 [Olaparib, olaparib]
p21
  senescence marker p21: significantly increased
[1]; Cx43_HCC1937, 96 h
  PARP-1 cleavage: strong PARP-1 cleavage
[1]; EV_HCC1937, 96 h
  PARP-1 cleavage: low cleavage levels
